Data taken from patent publication US20230124862A1, “BISMUTH THIOL COMPOUNDS AND COMPOSITIONS AND METHODS OF TREATING MICROBIAL CO-INFECTIONS” (Microbion Corporation, priority 2020, published 2023).
Values after ≈ are worked out from the molar mass of the structure shown. Values joined by “and” are separate entries in the source; they are usually repeats but may differ in a detail not shown here. Identical values can stand only once. Like-named read-outs stand apart in the source and are kept apart here.

How the values were obtained:
[1] = tested on: Pseudomonas aeruginosa strain PA01; experiment: Bacterial killing curves with and without CF patient sputum; format: cell-based; settings: tobramycin 1 μg/mL, 10% CF sputum, most time points
P. aeruginosa = experiment: Checkerboard FIC/FICI assay; format: cell-based, Pseudomonas aeruginosa; settings: Tobramycin in combination with BisEDT
[2] = tested on: Burkholderia cepacia complex; experiment: Checkerboard FIC/FICI assay; format: cell-based, Burkholderia spp.
S. aureus [3] = experiment: Broth microdilution MIC (Example 11); format: cell-based, Staphylococcus aureus; settings: Staphylococcus aureus, ATCC 29213 / MSSA, S. aureus MMX 101 (ATCC 29213); QC; MSSA; read-out: MIC
Enterococcus spp. = experiment: Broth microdilution MIC (Example 11); format: cell-based, E. faecalis, E. faecium; settings: Lev^R Cip^R Ery^R, read-out: MIC
[4] = tested on: Anaerobes (Bacteroides fragilis, Clostridium difficile); experiment: Agar dilution MIC (Example 11); format: cell-based; settings: read-out: MIC
Method: The susceptibility of anaerobic bacteria was determined by agar dilution using Brucella Agar (BD/BBL; Lot No. 5237692) supplemented with 5 μg/mL hemin (Sigma, St. Louis, Mo.; Lot No. 108K1088), 1 μg/mL Vitamin K1 and 5% (v/v) laked sheep blood (Cleveland Scientific, Bath, Ohio; Lot No. 322799).
Agar Dilution MIC Testing (Anaerobic Bacteria and Gonococci): MIC values for anaerobic bacteria were determined using a reference agar dilution method as described by CLSI (6). Organisms were grown at 35° C. in the Bactron II Anaerobic Chamber (Shel Lab, Cornelius, Oreg.) for approximately 48 hr prior to the assay. Drug dilutions and drug-supplemented agar plates were prepared manually per CLSI (6). The plates were allowed to stand at room temperature for 1 hr to allow the agar surface to dry and pre-reduced for approximately 1 hr in the anaerobe chamber prior to inoculation. Each isolate was suspended to the equivalent of a 0.5 McFarland standard in Brucella broth using a turbidity meter (Dade Behring MicroScan, West Sacramento, Calif.). Each bacterial cell suspension was then diluted 1:10 in Brucella broth and transferred to wells in a stainless steel replicator block which was used to inoculate the test plates. The prongs on the replicator deliver approximately 1-2 μl of inoculum to an agar surface. The resulting inoculum spots contained approximately 1×10^5 CFU/spot. After the inoculum dried, the inoculated drug-supplemented agar plates and no drug growth control plates were incubated at 35° C. for 42-48 hr in the anaerobe chamber. The MIC was read per CLSI guidelines (6).

[5] = tested on: vancomycin-intermediate Staphylococcus aureus (VISA); experiment: Broth microdilution MIC (Example 12); format: cell-based; settings: Staphylococcus aureus, NRS 13 / VISA, all isolates except NRS 13; read-out: MIC values
[6] = format: physicochemical
S. aureus [7] = settings: S. aureus MMX 101 (ATCC 29213); cited from earlier work
[8] = tested on: Gram-positive aerobic bacteria (S. aureus, MRSA, CA-MRSA); experiment: MIC90 against 150 clinical isolates of Gram-positive aerobic bacteria; format: cell-based; settings: S. aureus (50 isolates)
[9] = tested on: beta-hemolytic streptococci; experiment: Broth microdilution MIC (Example 11); format: cell-based, S. pyogenes, S. agalactiae; settings: ERY^R CC^R, read-out: MIC
Enterobacteriaceae = settings: E. coli MMX 102 (ATCC 25922); CLSI QC ranges shown in parenthesis; cited from earlier work
[10] = tested on: P. aeruginosa and A. baumannii; settings: P. aeruginosa MMX 103 (ATCC 27853); CLSI QC ranges shown in parenthesis; cited from earlier work
M. abscessus complex = experiment: MIC testing of CF isolates; format: cell-based, Mycobacterium abscessus
[11] = P. aeruginosa 6322, one value per panel row C-G
[12] = P. aeruginosa 6977, by checkerboard
[13] = P. aeruginosa 7745, by checkerboard
[14] = P. aeruginosa 9108, by checkerboard
[15] = B. cepacia 1793, Tobramycin in combination with BisEDT, by checkerboard
[16] = non-reversing and total heat flow

NC[C@H]1O[C@H](O[C@H]2[C@H](O)[C@@H](O[C@H]3O[C@H](CO)[C@@H](O)[C@H](N)[C@H]3O)[C@H](N)C[C@@H]2N)[C@H](N)C[C@@H]1O [tobramycin, Tobramycin, reference compound]
CFU higher in cultures with sputum vs without [1]: 0.5-1 log CFU/mL | FICB (P. aeruginosa; [11]): 1 | MICB (P. aeruginosa; [11]): 128 µg/mL | FICB (P. aeruginosa; [12]): 2 | MICB (P. aeruginosa; [12]): 256 µg/mL | FICB (P. aeruginosa; [13]): 1 | MICB (P. aeruginosa; [13]): 0.5 µg/mL | FICB (P. aeruginosa; [14]): 1 | MICB (P. aeruginosa; [14]): 0.0005 µg/mL | FICB ([2]; B. cenocepacia 548, FIC of Tobramycin (Drug B) in combination with BisEDT): 0.25 and 0.5 | MICB ([2]; B. cenocepacia 548, MIC of Tobramycin (Drug B) in combination with BisEDT): 8 µg/mL and 16 µg/mL | FICB ([2]; B. cenocepacia 813, FIC of Tobramycin (Drug B) in combination with BisEDT): 0.5 and 1 | FICB [2, 15]: 0.5 and 1 | MICB [2, 15]: 8 µg/mL and 16 µg/mL | FICB ([2]; B. multivorans 1795, FIC of Tobramycin (Drug B) in combination with BisEDT): 1 | MICB ([2]; B. multivorans 1795, MIC of Tobramycin (Drug B) in combination with BisEDT): >256 µg/mL

CCC[C@@H]1C[C@@H](C(=O)N[C@@H]([C@H]2O[C@H](SC)[C@H](O)[C@@H](O)[C@H]2O)[C@H](C)Cl)N(C)C1 [clindamycin, reference compound]
MIC (S. aureus [3]): 0.12 µg/mL (≈ 0.282 µM) | MIC (Enterococcus spp.; E. faecalis MMX 8960, VRE): > 32 µg/mL | MIC (Enterococcus spp.; E. faecalis MMX 8961, VRE): > 32 µg/mL | MIC (Enterococcus spp.; E. faecalis MMX 8962, VRE): > 32 µg/mL | MIC (Enterococcus spp.; E. faecium MMX 485, VRE vanA): > 32 µg/mL | MIC (Enterococcus spp.; E. faecium MMX 752, VRE vanA): > 32 µg/mL | MIC ([4]; Bacteroides fragilis, ATCC25285, B. fragilis MMX 123 (ATCC 25285), QC): 1 µg/mL (≈ 2.35 µM) | MIC ([4]; C. difficile MMX 4381 (ATCC 700057), QC, CC^1): 4 µg/mL (≈ 9.41 µM) | MIC ([4]; C. difficile MMX 5680 (NCTC 13336), ribotype 027, CC^1 MET^R): 4 µg/mL (≈ 9.41 µM) | MIC ([4]; C. difficile MMX 5681 (NCTC 13307), ribotype 012, CC^R): > 64 µg/mL | MIC ([4]; C. difficile MMX 8272, ribotype 255, CC^1): 4 µg/mL (≈ 9.41 µM) | MIC ([4]; C. difficile MMX 8279, ribotype 005, CC^R): > 64 µg/mL | MIC ([4]; C. difficile MMX 8281, ribotype 010, CC^R): > 64 µg/mL | MIC [5]: > 4 µg/mL

C1C[S][Bi]([S]CC[S][Bi]2[S]CC[S]2)[S]1 [X-ray amorphous BisEDT]
Temperature cycling DSC: broad, weak endotherm (approximate peak max) ([6]; Cycle 1, heat to 85° C.): Broad, weak endotherm at 75 °C | Temperature cycling DSC: small endotherm (peak max) ([6]; Cycle 4, heat to 130° C., 10° C./min): Small endotherm at 112 °C (peak max) | Temperature cycling DSC: sharp exotherm (peak max) ([6]; Cycle 7, heat to 200° C., 10° C./min): Sharp exotherm at 160 °C (peak max) | DSC: broad endotherm (peak max) ([6]; conventional DSC): Broad endotherm at 64 °C (peak max) | DSC: sharp strong exotherm (peak max) ([6]; conventional DSC): Sharp strong exotherm at 168 °C | DSC: small endotherm (peak max) ([6]; conventional DSC): Small endotherm at 112 °C (peak max) | DSC: small exotherm (peak max) ([6]; conventional DSC): Small exotherm at 145 °C (peak max) | Modulated DSC: broad weak endotherm (peak max) [6, 16]: Broad weak endotherm at 47 °C | Modulated DSC: heat flow fluctuations [6, 16]: Heat flow fluctuations above 140 °C | Modulated DSC: small endotherm (peak max) [6, 16]: Small endotherm at 104 °C (peak max) | Modulated DSC: small exotherm (peak max) [6, 16]: Small exotherm at 134 °C (peak max) | Modulated DSC: Tg (midpoint of step change) ([6]; reversing heat flow): Tg at 101 °C (midpoint of step change) | Modulated DSC: ΔCp ([6]; reversing heat flow, at Tg): (ΔCp 0.3 J/(g*K)

Cc1onc(-c2ccccc2)c1C(=O)N[C@@H]1C(=O)N2[C@@H]1SC(C)(C)[C@@H]2C(=O)O [Oxacillin]
CLSI QC range of MIC (S. aureus [7]): (0.12-0.25) μg/mL

C[C@@H](O)[C@H]1C(=O)N2C(C(=O)O)=C(SCCN=CN)C[C@H]12 [IPM]
MIC90 ([8]; CA-MRSA): 2 µg/mL (≈ 6.68 µM) | MIC90 ([8]; MRSA): >8 µg/mL | MIC90 ([8]; MSSA): 0.03 µg/mL (≈ 0.1 µM)

C[C@H]1COc2c(N3CCN(C)CC3)c(F)cc3c(=O)c(C(=O)O)cn1c23 [Levofloxacin, reference compound]
MIC (S. aureus [3]): 0.12 µg/mL (≈ 0.332 µM) | MIC (Enterococcus spp.; E. faecalis MMX 8960, VRE): 32 µg/mL (≈ 88.6 µM) | MIC (Enterococcus spp.; E. faecalis MMX 8961, VRE): 64 µg/mL (≈ 177 µM) | MIC (Enterococcus spp.; E. faecalis MMX 8962, VRE): 64 µg/mL (≈ 177 µM) | MIC (Enterococcus spp.; E. faecium MMX 485, VRE vanA): > 64 µg/mL | MIC (Enterococcus spp.; E. faecium MMX 752, VRE vanA): > 64 µg/mL | MIC ([9]; Streptococcus agalactiae, S. agalactiae MMX 3741): 0.25 µg/mL (≈ 0.692 µM) | MIC ([9]; Streptococcus pyogenes, S. pyogenes MMX 5091): 0.5 µg/mL (≈ 1.38 µM) | MIC [5]: > 4 µg/mL

CC(C)(O/N=C(\C(=O)N[C@@H]1C(=O)N2C(C(=O)[O-])=C(C[n+]3ccccc3)CS[C@H]12)c1csc(N)n1)C(=O)O [Ceftazidime]
MIC (S. aureus [3]): 8 µg/mL (≈ 14.6 µM) | MIC (Enterococcus spp.; E. faecalis MMX 8960, VRE): > 32 µg/mL | MIC (Enterococcus spp.; E. faecalis MMX 8961, VRE): > 32 µg/mL | MIC (Enterococcus spp.; E. faecalis MMX 8962, VRE): > 32 µg/mL | MIC (Enterococcus spp.; E. faecium MMX 485, VRE vanA): > 32 µg/mL | MIC (Enterococcus spp.; E. faecium MMX 752, VRE vanA): > 32 µg/mL | MIC, CLSI QC range (Enterobacteriaceae): (0.06-0.5) μg/mL | MIC, CLSI QC range [10]: (1-4) μg/mL | CLSI QC range of MIC (S. aureus [7]): (4-16) μg/mL

CC[C@H]1OC(=O)[C@H](C)[C@@H](O[C@H]2C[C@@](C)(OC)[C@@H](O)[C@H](C)O2)[C@H](C)[C@@H](O[C@@H]2O[C@H](C)C[C@H](N(C)C)[C@H]2O)[C@](C)(OC)C[C@@H](C)C(=O)[C@H](C)[C@@H](O)[C@]1(C)O [CLR]
MIC (M. abscessus complex; M. abscessus/massiliense complex (AMT0068-40)): 1 µg/mL (≈ 1.34 µM) | MIC (M. abscessus complex; M. abscessus/massiliense complex (AMT0119-7)): 1 µg/mL (≈ 1.34 µM) | MIC (M. abscessus complex; M. abscessus/massiliense complex (AMT0493-2), AMK R): 2 µg/mL (≈ 2.67 µM) | MIC (M. abscessus complex; M. abscessus/massiliense complex (AMT01130-8)): 1 µg/mL (≈ 1.34 µM) | MIC (M. abscessus complex; M. abscessus/massiliense complex (AMT1539)): 2 µg/mL (≈ 2.67 µM) | MIC (M. abscessus complex; M. abscessus/massiliense complex (ATCL119977), Macrolide R (inducible)): >32^1 ^ μg/mL
